Measurements reported in patent US20230414571A1, “APPLICATION OF SMALL-MOLECULE COMPOUND IN PREPARATION OF ANTITUMOR DRUG” (SOOCHOW UNIVERSITY, priority 2021, published 2023).

Tests used:
U87 cells = assay: Flow cytometry analysis of U87 cell apoptosis (Annexin V-FITC/PI staining); assay type: cell-based; settings: 20 μM, 24 hours
Method: In a dulbecco's modified eagle medium (DMEM), 5×10^5 U87 cells were inoculated into a 24-hole plate. After culturing for 24 hours, compound 27 (final concentration 20 μM) was directly added to a cell growth medium, incubated at 37° C. for 24 hours, briefly digested with trypsin, washed twice with cold PBS, centrifuged (2000 rpm, 5 min) and washed twice with cold PBS after a supernatant culture medium was discarded. The cells (1×10^5 cells/mL) were resuspended with a 400 μL of buffer solution (1×). 5 μL of Annexin V-FITC was added to the cell suspension and cultured at 4° C. for 15 minutes. Then, the cells were gently mixed with another dye propidium iodide (PI) (10 μL). The cells were collected for flow cytometry analysis. Data analysis was performed by using a CFLow Plus (Accuri Cytometers).
In order to further confirm the occurrence of apoptosis, the applicant tested the exposed phosphatidylserine by using an annexin V/propidium iodide double staining method, and observed a cell membrane damage phenomenon.

hexokinase 2 (HK2) = target: T1, hexokinase 2 (HK2) (Homo sapiens, UniProt P52789); assay: HK2 activity test on GLMSD platform (graphite dots MALDI-MS); assay type: biochemical
T1 sequence (P52789 1-917): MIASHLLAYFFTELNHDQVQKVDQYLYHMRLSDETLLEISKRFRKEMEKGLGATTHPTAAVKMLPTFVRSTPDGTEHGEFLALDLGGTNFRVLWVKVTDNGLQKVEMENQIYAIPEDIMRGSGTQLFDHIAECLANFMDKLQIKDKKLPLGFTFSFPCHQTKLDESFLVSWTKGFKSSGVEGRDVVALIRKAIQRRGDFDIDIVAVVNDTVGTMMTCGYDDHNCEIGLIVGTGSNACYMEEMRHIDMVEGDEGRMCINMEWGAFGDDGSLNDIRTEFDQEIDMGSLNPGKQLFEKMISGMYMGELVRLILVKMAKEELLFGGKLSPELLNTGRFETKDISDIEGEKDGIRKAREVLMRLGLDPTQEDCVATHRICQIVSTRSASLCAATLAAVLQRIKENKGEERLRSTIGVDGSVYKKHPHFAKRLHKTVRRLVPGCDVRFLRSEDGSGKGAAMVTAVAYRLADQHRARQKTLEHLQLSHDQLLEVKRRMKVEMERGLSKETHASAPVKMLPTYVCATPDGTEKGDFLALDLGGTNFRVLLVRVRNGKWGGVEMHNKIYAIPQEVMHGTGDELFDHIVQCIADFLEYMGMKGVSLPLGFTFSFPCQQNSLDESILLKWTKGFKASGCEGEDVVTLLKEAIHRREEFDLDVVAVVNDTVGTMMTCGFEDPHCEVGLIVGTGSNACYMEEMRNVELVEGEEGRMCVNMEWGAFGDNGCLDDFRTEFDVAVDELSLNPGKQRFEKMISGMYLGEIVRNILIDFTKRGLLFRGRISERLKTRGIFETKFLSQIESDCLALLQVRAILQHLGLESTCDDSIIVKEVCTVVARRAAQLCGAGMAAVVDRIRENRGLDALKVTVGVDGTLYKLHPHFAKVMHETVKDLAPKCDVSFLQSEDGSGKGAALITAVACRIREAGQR
Method: GDs were dispersed in water at a concentration of 1 mg/mL as a matrix solution to be used. A sample was prepared by using a quick-drying method: firstly, 1 μL of matrix solution was dropped onto a target plate, and after natural drying at a room temperature in a […], 1 μL of sample to be analyzed was dropped onto a surface of the dried matrix, and after the sample was naturally dried, mass spectrometry was directly performed:
An instrument in the MALDI-MS was a Bruker Ultraflex III TOF/TOF mass spectrometer, which was mainly in a reflection positive and negative ion mode. Nd of 355 nm for instrument parameter: YAG laser had laser energy of 30% corresponding to 57 μJ per pulse (laser pulse duration: 3 ns), a laser spot size was about 50-100 μm, each sample was repeatedly tested four times, and 3000 laser spots were accumulated in each mass spectrum. All samples were measured under the same instrumental conditions.
an inhibition rate=(1−B/A)×100%, where • A was: a glucose concentration in a pre-reaction solution without the inhibitor-a glucose concentration in a post-reaction solution without the inhibitor, • B was: a glucose concentration in a pre-reaction solution with the inhibitor-a glucose concentration in a post-reaction solution with the inhibitor, and • a glucose concentration in the reaction solution=(mass spectrum signal strength of [glucose+Na]+/mass spectrum signal strength of [glucose-1-^13C+Na]+)×known concentration of glucose-1-^13C.

With `CCOc1ccc(C(=O)NCCCN(C)CCCN(C)Cc2ccccc2)cc1Br` [compound 27] the “early (Annexin+/PI−) apoptotic cells” value (U87 cells) was 31.2%, the “late (Annexin+/PI+) apoptotic cells” value (U87 cells) was 30.6% and the “inhibitory effect on the HK2” value (hexokinase 2 (HK2); inhibition curves FIGS. 3-7, colorimetric kit and GLMSD) was “good inhibitory effects”. The inhibition at 20 µM (hexokinase 2 (HK2); small-molecule concentration of the inhibitor 20 μM, GLMSD, read-out: inhibition rate of HK2 activity) was 31%.
